Literature values in US7659264B2, “CGRP receptor antagonists” (Merck Sharp & Dohme Corp., priority 2004, dated 2010).
Where no end group is shown, it is not given here.

Tests used:
migraine = conditions: clinical studies, intravenously administered
facial blood flow [1] = conditions: marmoset, electrical stimulation of the trigeminal ganglion
facial blood flow [2] = conditions: rat, trigeminal ganglion stimulation
[3] = tested on: diameter of the middle meningeal artery; conditions: rats, electrical stimulation of the dura mater, prior administration

For `NCCCC[C@H](NC(=O)[C@@H](Cc1cc(Br)c(O)c(Br)c1)NC(=O)N1CCC(N2Cc3ccccc3NC2=O)CC1)C(=O)N1CCN(c2ccncc2)CC1` [BIBN4096BS], the “acute treatment for migraine” value (migraine) is listed as “safe and effective acute treatment for migraine” and the “effect on increase in facial blood flow” value (facial blood flow [1]) is listed as “could be blocked”.
In the case of “CGRP(8-37): a peptide CGRP antagonist; fragment of CGRP that lacks seven N-terminal amino acid residues (VTHRLAGLLSRSGGVVKNNFVPTNVGSKAF; ends and bridges not checked; UniProt P06881 90-119, looked up, fragment)”, the “effect on increased facial blood flow” value (facial blood flow [2]) is given as “inhibited” and the “effect on increased diameter of the middle meningeal artery” value [3] is given as “blocked”.
